Measurements: patent US9446071B2, “Antimicrobially active compositions based on zinc compound, glycerine monoalkyl ether and antioxidant” (L'AIR LIQUIDE SOCIETE ANONYME POUR L'ETUDE ET …, priority 2012, dated 2016)

Tested on: Streptococcus mutans ATCC: 25175
Experiment: Minimal inhibitory concentration (method C) of mouthwash formulations
Assay type: cell-based
Conditions: pH 4
Procedure: The minimal inhibitory concentration which is required by a preparation in order to inhibit the growth of a defined microorganism is tested.
5 ml of the given product test solution (optionally doubly concentrated) is mixed with 5 ml of doubly concentrated CSS broth. The tubes are then inoculated with 0.1 ml of a test suspension containing 10^8 microbes.
The assessment is performed after 48 hr incubation at 36° C.±1° C. (C. albicans 30° C.±1° C.).
Further, the action of combinations according to the invention against the caries-causing organism Streptococcus mutans in the mouthwash formulations shown in Table 10 was tested.
The pH of the formulations was adjusted to pH 4.

Molecule | Activity against Streptococcus mutans
O=C([O-])CC(O)(CC(=O)[O-])C(=O)[O-].O=C([O-])CC(O)(CC(=O)[O-])C(=O)[O-].[Zn+2].[Zn+2].[Zn+2] [TZC, trizinc citrate] | not sufficient
PEG-40 macrogol glycerol hydroxystearate [Mghs] | no intrinsic activity
